Two sequences from paper PMC12020424, “Identification and Validation of Cyclic Peptides with Mucin-Selective, Location-Specific Binding in the Gastrointestinal Tract” (ACS Nano, 2025) can be followed below.

This experiment has as its target MUC2 (Homo sapiens, UniProt Q02817). Briefly: Phage display (CX7C library) against MUC2, Sanger sequencing. The format is binding. To be noted: for % Prevalence: MUC2 phage screening, CX7C library, third round of panning, 16 sequenced candidates. How it is done:
For each mucin of interest, 5 μg of mucin protein was diluted in 150 μL of Tris-buffered saline (TBS) and added to 2 wells of a microtiter plate. The plate was left overnight in a humidified, sealed container with agitation at 50 rpm. After the overnight mucin coating, the solution was poured out, and 300 μL of blocking buffer was added to the wells for 1 h. After the 1 h waiting period, the blocking buffer was poured out, and the wells were washed three times with 300 μL of Tris-buffered saline with TBST (TBS + 0.1% (v/v) Tween-20) to remove nonspecific binding on the mucin layer coating. Next, 5 μL of the C7C library diluted with 95 μL of TBST was added to each blocked well and placed on shaker for 45 min, before pouring out the nonbinding phage and washing the plate ten times with TBST. A 0.2 M glycine-HCl elution buffer (pH 2.2, 100 μL) was added to each well and placed on a shaker for 20 min to release the mucin-layer binding peptides on the plate as unamplified eluate, with the pH neutralized by 30 μL of neutralization buffer (1 M Tris-HCl, pH 9).
E. coli liquid cultures were prepared by adding E. coli cells to 20 mL of LB media and placing them in shaking conditions at 37 °C and 250 rpm for 2 h and 45 min. The unamplified eluate (1 μL of which was saved for titering) was added to the E. coli cultures under the same conditions for 4 h and 45 min for amplification. After amplification, the cultures were centrifuged for 10 min at 12,000 g RCF at 4 °C, and the supernatant was collected and spun again under the same conditions for 5 min. The top 16 mL of supernatant was collected and mixed with 4 mL of PEG/NaCl (20% (w/v) PEG-8000/2.5 M NaCl in water) to promote precipitation of the mucin-binding peptide-containing phage and left overnight.
Titering was performed to measure the amount of phages present in the solution. From the obtained unamplified eluate, 1 μL of unamplified eluate was added to 999 μL of LB solution to obtain a 10³ dilution. […]

Bridge positions count the residues as written; N and C are the ends. Ends that are not written are not given here.

For the sequence “CAKHRIMLC (disulfide 1-9 (inferred)) [Peptide M2.1, CX7C cyclic peptide hit for MUC2; AF647 conjugated at N-terminus in ex vivo tests]”, the “% Prevalence” value is reported as 25%. Also, the “repeated peptide hits (number of phage candidates)” value (phage display against MUC2, Sanger sequencing) is reported as 4 of 16.

For “CTDKASSSC (disulfide 1-9 (inferred)) [Peptide M2.2, CX7C cyclic peptide hit for MUC2]”, the “% Prevalence” value is listed as 6.25%.
